In PMC8926291 (Chemical Science, 2022):
Starred links: 1 amine or outer side, 2 acyl side, 3 side chain; linkers in the order of their positions; H or OH if unused. Positions of bridges follow the written chain, without caps; N, C: chain ends. Residues, ends and D or L forms follow the SMILES beside them. *: point of attachment. C18 diacid = O=C(O)CCCCCCCCCCCCCCCCC(=O)*; γGlu = O=C(O)[C@H](CCC(=O)[*:2])N[*:1]; AEEA = NCCOCCOCC(=O)O

Tests used:
[1] = pharmacokinetic study in rats, i.v. dosing; type: in vivo; conditions: male, Sprague-Dawley, rat, plasma, iv, 2 nmol/kg, mean
[2] = in vitro plasma stability in human plasma; conditions: 37 °C, over 5 h
[3] = target: T1, hGIP-R ECD (Homo sapiens, UniProt P48546); test: multi-concentration BLI binding of purified peptides to hGIP-R ECD
T1 sequence (P48546 22-138): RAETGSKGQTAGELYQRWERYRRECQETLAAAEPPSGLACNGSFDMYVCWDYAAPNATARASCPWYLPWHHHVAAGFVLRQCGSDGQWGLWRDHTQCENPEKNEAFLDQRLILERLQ

[4] = cited from earlier work
[5] = target: T1, hGIP-R ECD; test: single-concentration BLI binding of crude peptides to biotinylated hGIP-R ECD

With `CC(C)C[C@@H]1NC(=O)[C@H](CC(=O)O)NC(=O)[C@H](Cc2ccccc2)NC(=O)[C@H](Cc2c[nH]cn2)NC(=O)[C@H]([C@@H](C)O)NC(=O)[C@H](Cc2ccccc2)NC(=O)[C@@H](NC(=O)[C@H](C)NC(=O)COCCOCCNC(=O)COCCOCCNC(=O)CC[C@H](NC(=O)CCCCCCCCCCCCCCCCC(=O)O)C(=O)O)CSSC[C@@H](C(=O)O)NC(=O)[C@H](Cc2ccccc2)NC(=O)[C@@H]2CCCN2C(=O)[C@H](Cc2c[nH]c3ccccc23)NC(=O)[C@H](CC(C)C)NC1=O` [B_1275.6] ({C18 diacid-γGlu-AEEA-AEEA}-ACFTHFDLLWPFC-OH; disulfide 2-13) the half-life ([1]; t½ (h)) was 4.2 h and the “In vitro plasma stability (in words)” value [2] was “no decrease in plasma stability”.
For “Ac-MSFTHFHMLWPFSGSGSDYKDDDDK-NH2 [B_1275.2]”, the “binding to hGIP-R ECD (in words)” value [3] was “None of the linear variants”.
For semaglutide, the t1/2 in rats [4] is given as 7 h.
With `CC(=O)N[C@@H](C)C(=O)N[C@H]1CSSC[C@@H](C(=O)NCC(=O)N[C@@H](CO)C(=O)NCC(=O)N[C@@H](CO)C(=O)N[C@@H](CC(=O)O)C(=O)N[C@@H](Cc2ccc(O)cc2)C(=O)N[C@@H](CCCCN)C(=O)N[C@@H](CC(=O)O)C(=O)N[C@@H](CC(=O)O)C(=O)N[C@@H](CC(=O)O)C(=O)N[C@@H](CC(=O)O)C(=O)N[C@@H](CCCCN)C(N)=O)NC(=O)[C@H](Cc2ccccc2)NC(=O)[C@@H]2CCCN2C(=O)[C@H](Cc2c[nH]c3ccccc23)NC(=O)[C@H](CC(C)C)NC(=O)[C@H](CC(C)C)NC(=O)[C@H](CC(=O)O)NC(=O)[C@H](Cc2ccccc2)NC(=O)[C@H](Cc2c[nH]cn2)NC(=O)[C@H]([C@@H](C)O)NC(=O)[C@H](Cc2ccccc2)NC1=O` [B_1275.4] (Ac-ACFTHFDLLWPFCGSGSDYKDDDDK-NH2; disulfide 2-13) the half-life ([1]; t½ (min)) was 0.0583 h and the “In vitro plasma stability (in words)” value [2] was “no decrease in plasma stability”.
With “Ac-MSFRFFSLLWPFSGSGSDYKDDDDK-NH2 [B_68.2]” the “binding to hGIP-R ECD (in words)” value [3] was “None of the linear variants”.
In the case of “Ac-MSFQYFHILWPFSGSGSDYKDDDDK-NH2 [B_3.2]”, the “binding to hGIP-R ECD (in words)” value [3] is reported as “None of the linear variants”.
With “Ac-MSFIHWDMLWPFSGSGSDYKDDDDK-NH2 [B_5.2]” the “binding to hGIP-R ECD (in words)” value [3] was “None of the linear variants”.
In the case of `CSCC[C@H](NC(=O)COCCOCCNC(=O)COCCOCCNC(=O)CC[C@H](NC(=O)CCCCCCCCCCCCCCCCC(=O)O)C(=O)O)C(=O)N[C@H]1CSSC[C@@H](C(=O)NCC(=O)N[C@@H](CO)C(=O)NCC(=O)N[C@@H](CO)C(=O)N[C@@H](CC(=O)O)C(=O)N[C@@H](Cc2ccc(O)cc2)C(=O)N[C@@H](CCCCN)C(=O)N[C@@H](CC(=O)O)C(=O)N[C@@H](CC(=O)O)C(=O)N[C@@H](CC(=O)O)C(=O)N[C@@H](CC(=O)O)C(=O)N[C@@H](CCCCN)C(N)=O)NC(=O)[C@H](Cc2ccccc2)NC(=O)[C@@H]2CCCN2C(=O)[C@H](Cc2c[nH]c3ccccc23)NC(=O)[C@H](CC(C)C)NC(=O)[C@H](CCSC)NC(=O)[C@H](Cc2c[nH]cn2)NC(=O)[C@H](Cc2ccccc2)NC(=O)[C@H](Cc2c[nH]cn2)NC(=O)[C@H]([C@@H](C)O)NC(=O)[C@H](Cc2ccccc2)NC1=O` [B_1275.1] ({C18 diacid-γGlu-AEEA-AEEA}-MCFTHFHMLWPFCGSGSDYKDDDDK-NH2; disulfide 2-13), the half-life ([1]; t½ (h)) is reported as 10.7 h.
In the case of `CC(=O)N[C@@H](C)C(=O)N[C@H]1CSSC[C@@H](C(=O)O)NC(=O)[C@H](Cc2ccccc2)NC(=O)[C@@H]2CCCN2C(=O)[C@H](Cc2c[nH]c3ccccc23)NC(=O)[C@H](CC(C)C)NC(=O)[C@H](CC(C)C)NC(=O)[C@H](CC(=O)O)NC(=O)[C@H](Cc2ccccc2)NC(=O)[C@H](Cc2c[nH]cn2)NC(=O)[C@H]([C@@H](C)O)NC(=O)[C@H](Cc2ccccc2)NC1=O` [B_1275.5] (Ac-ACFTHFDLLWPFC-OH; disulfide 2-13), the half-life ([1]; t½ (min)) is reported as 0.03 h and the “In vitro plasma stability (in words)” value [2] is reported as “no decrease in plasma stability”.
For `CC(=O)N[C@@H](C)C(=O)N[C@H]1CSSC[C@@H](C(=O)NCC(=O)N[C@@H](CO)C(=O)NCC(=O)N[C@@H](CO)C(=O)N[C@@H](CC(=O)O)C(=O)N[C@@H](Cc2ccc(O)cc2)C(=O)N[C@@H](CCCCN)C(=O)N[C@@H](CC(=O)O)C(=O)N[C@@H](CC(=O)O)C(=O)N[C@@H](CC(=O)O)C(=O)N[C@@H](CC(=O)O)C(=O)N[C@@H](CCCCN)C(N)=O)NC(=O)[C@@H]2CCCN2C(=O)[C@@H]2CCCN2C(=O)[C@H](Cc2c[nH]c3ccccc23)NC(=O)[C@H](CC(C)C)NC(=O)[C@H](CC(C)C)NC(=O)[C@H](Cc2c[nH]cn2)NC(=O)[C@H](Cc2ccccc2)NC(=O)[C@H](Cc2c[nH]cn2)NC(=O)[C@H]([C@@H](C)O)NC(=O)[C@H](Cc2ccccc2)NC1=O` [B_1275.10] (Ac-ACFTHFHLLWPPCGSGSDYKDDDDK-NH2; disulfide 2-13), the “binding to hGIP-R ECD (in words)” value [3] was “did not show any binding”.
In the case of `CSCC[C@H](NC(C)=O)C(=O)N[C@H]1CSSC[C@@H](C(=O)NCC(=O)N[C@@H](CO)C(=O)NCC(=O)N[C@@H](CO)C(=O)N[C@@H](CC(=O)O)C(=O)N[C@@H](Cc2ccc(O)cc2)C(=O)N[C@@H](CCCCN)C(=O)N[C@@H](CC(=O)O)C(=O)N[C@@H](CC(=O)O)C(=O)N[C@@H](CC(=O)O)C(=O)N[C@@H](CC(=O)O)C(=O)N[C@@H](CCCCN)C(N)=O)NC(=O)[C@H](Cc2ccccc2)NC(=O)[C@@H]2CCCN2C(=O)[C@H](Cc2c[nH]c3ccccc23)NC(=O)[C@H](CC(C)C)NC(=O)[C@H](CC(C)C)NC(=O)[C@H](CO)NC(=O)[C@H](Cc2ccccc2)NC(=O)[C@H](Cc2ccccc2)NC(=O)[C@H](CCCNC(=N)N)NC(=O)[C@H](Cc2ccccc2)NC1=O` [B_68] (Ac-MCFRFFSLLWPFCGSGSDYKDDDDK-NH2; disulfide 2-13), the “binding to hGIP-R ECD (in words)” value [5] is reported as “did not reveal any binding”.
For `CSCC[C@H](NC(=O)COCCOCCNC(=O)COCCOCCNC(=O)CC[C@H](NC(=O)CCCCCCCCCCCCCCCCC(=O)O)C(=O)O)C(=O)N[C@H]1CSSC[C@@H](C(N)=O)NC(=O)[C@H](Cc2ccccc2)NC(=O)[C@@H]2CCCN2C(=O)[C@H](Cc2c[nH]c3ccccc23)NC(=O)[C@H](CC(C)C)NC(=O)[C@H](CCSC)NC(=O)[C@H](Cc2c[nH]cn2)NC(=O)[C@H](Cc2ccccc2)NC(=O)[C@H](Cc2c[nH]cn2)NC(=O)[C@H]([C@@H](C)O)NC(=O)[C@H](Cc2ccccc2)NC1=O` [B_1275.3] ({C18 diacid-γGlu-AEEA-AEEA}-MCFTHFHMLWPFC-NH2; disulfide 2-13), the “In vitro plasma stability (in words)” value [2] was “no decrease in plasma stability”.
